Our source for the IC50 values is paper PMC10526447 (Biomolecules, 2023).

Like-named read-outs stand apart in the source and are kept apart here. Positions of bridges follow the written chain, without caps; N, C: chain ends. No end group written: not given here.

Assay [1] deals with live SARS-CoV-2 Delta variant (B.1.617.2). Particulars: live Delta variant (B.1.617.2, 2 h).
The subject of assay [2] is Pseudotyped SARS-CoV-2 BA.2.75. Particulars: Pseudotyped BA.2.75, 48 h.
In assay [3] the test system is Pseudotyped SARS-CoV-2 BA.5. To be noted: Pseudotyped BA.5, 48 h.
Assay [4] relates to Pseudotyped SARS-CoV-2 B.1.351 (Beta). Particulars: Pseudotyped B.1.351 (Beta, 48 h).
Assay [5] relates to Pseudotyped SARS-CoV-2 XBB. To be noted: 48 h.
The test system of assay [6] is Pseudotyped SARS-CoV-2 C.37. To be noted: Pseudotyped C.37, 48 h.
Assay [7] has as its system Pseudotyped SARS-CoV-2 B.1.617.2 (Delta). To be noted: Pseudotyped B.1.617.2 (Delta, 48 h).
Assay [8] has as its system Pseudotyped SARS-CoV-2 BA.2. Particulars: Pseudotyped BA.2, 48 h.
Assay [9] relates to Pseudotyped SARS-CoV-2 BA.4.6. Particulars: Pseudotyped BA.4.6, 48 h.
For assay [10], the system named is Pseudotyped SARS-CoV-2 C.37. To be noted: Pseudotyped C.37, 48 h. The source holds these as a separate data set.
Assay [11] has as its system Pseudotyped SARS-CoV-2 P.1 (Gamma). To be noted: Pseudotyped P.1 (Gamma, 48 h).
Assay [12] relates to Pseudotyped SARS-CoV-2 BA.2.12.1. To be noted: Pseudotyped BA.2.12.1, 48 h.
Assay [13] has as its system Pseudotyped SARS-CoV-2 B.1.1.7 (Alpha). Particulars: Pseudotyped B.1.1.7 (Alpha, 48 h).
In assay [14] the test system is Pseudotyped SARS-CoV-2 BF.7. Particulars: Pseudotyped BF.7, 48 h.
For assay [15], the system named is Pseudotyped SARS-CoV-2 B.1.617.2 (Delta). To be noted: Pseudotyped B.1.617.2 (Delta, 48 h). This is another data set of the same source.
In assay [16] the test system is Pseudotyped SARS-CoV-2 B.1.1.7 (Alpha). Particulars: Pseudotyped B.1.1.7 (Alpha, 48 h). The source holds these as a separate data set.
In assay [17] the test system is Pseudotyped SARS-CoV-2 BQ.1.1. Particulars: Pseudotyped BQ.1.1, 48 h.
The test system of assay [18] is Pseudotyped SARS-CoV-2 BA.1. To be noted: Pseudotyped BA.1, 48 h.
In assay [19] the test system is Pseudotyped SARS-CoV-2 P.1 (Gamma). Particulars: Pseudotyped P.1 (Gamma, 48 h). The source holds these as a separate data set.
For assay [20], the system named is Pseudotyped SARS-CoV-2 N501Y. Particulars: 48 h.
Assay [21] has as its system Pseudotyped SARS-CoV-2 N501Y. Particulars: 48 h. The source holds these as a separate data set.
For assay [22], the system named is Pseudotyped SARS-CoV-2 B.1.351 (Beta). Particulars: Pseudotyped B.1.351 (Beta, 48 h). This is another data set of the same source.

`CC(C)C[C@@H]1NC(=O)[C@H](Cc2c[nH]cn2)NC(=O)[C@H](Cc2c[nH]c3ccccc23)NC(=O)[C@H](C)NC(=O)[C@@H](NC(=O)[C@@H](N)CC(=O)O)CSSC[C@@H](C(=O)N[C@H](C(=O)O)[C@@H](C)O)NC(=O)[C@H](Cc2c[nH]c3ccccc23)NC(=O)[C@H](C(C)C)NC(=O)[C@H](CC(C)C)NC(=O)[C@H](CCC(=O)O)NC(=O)CNC1=O` [IBP]: the half-maximal inhibitory concentration (IC50) in assay [1] is above 50000 nM; in assay [2] it was above 50000 nM; in [3] it was above 50000 nM; in [4], above 50 µM; in assay [5], above 50000 nM; in assay [6], above 50 µM. In addition, the IC50 was above 50 µM in assay [7]; above 50000 nM in assay [8]; above 50000 nM in assay [9]; above 50 µM in [10]; above 50 µM in assay [11]; above 50000 nM in assay [12]. The IC50 in assay [13] was above 50 µM; in assay [14], above 50000 nM; in [15] it was above 50 µM; in assay [16] it was above 50 µM; in assay [17], above 50000 nM; in assay [18], above 50000 nM. Also, the concentration for half-maximal inhibition (IC50) in assay [19], in assay [20], in [21] and in [22] was above 50 µM each time.
On to `CC[C@H](C)[C@H](NC(=O)[C@H](C)NC(=O)[C@H](CCC(=O)O)NC(=O)[C@H](CCC(=O)O)NC(=O)[C@H](CC(C)C)NC(=O)[C@H](CCCCN)NC(=O)[C@H](CCCCN)NC(=O)[C@H](CCSC)NC(=O)[C@H](CCC(=O)O)NC(=O)[C@H](Cc1ccc(O)cc1)NC(=O)[C@H](CCC(=O)O)NC(=O)[C@H](CC(C)C)NC(=O)[C@H](CC(=O)O)NC(=O)[C@H](CC(C)C)NC(=O)[C@H](Cc1ccccc1)NC(=O)[C@@H](NC(=O)[C@@H](NC(=O)[C@H](CC(N)=O)NC(=O)[C@@H](NC(=O)[C@H](CCC(N)=O)NC(=O)[C@H](CC(=O)O)NC(=O)[C@H](CC(C)C)NC(=O)[C@@H](N)CO)[C@@H](C)CC)C(C)C)[C@@H](C)O)C(=O)N[C@@H](CCCCN)C(=O)N[C@@H](CCCCN)C(=O)N[C@@H](CC(C)C)C(=O)N[C@@H](CCC(=O)O)C(=O)N[C@@H](CCC(=O)O)C(=O)N[C@@H](CO)C(=O)N[C@@H](Cc1ccc(O)cc1)C(=O)N[C@H](C(=O)N[C@@H](CC(=O)O)C(=O)N[C@@H](CC(C)C)C(=O)N[C@@H](CCCCN)C(=O)N[C@@H](CCC(=O)O)C(=O)N[C@@H](CC(C)C)C(=O)O)[C@@H](C)CC` [EK1], for which the IC50 in assay [1] worked out at 296 nM; in [2], 248 nM; in assay [3], 690 nM; in [5], 366 nM; in assay [8] it was 544 nM; in assay [9] it was 201 nM. Further, the IC50 is 592 nM in assay [12], 260 nM in assay [14], 378 nM in assay [17] and 334 nM in assay [18].
Regarding “DCAWHLGELVWCTSLDQINVTFLDLEYEMKKLEEAIKKLEESYIDLKEL (disulfide 2-12) [IBP-EK1]”, the IC50 in assay [1] came out at 204 nM; in assay [2] it was 221 nM; in assay [3], 564 nM; in assay [5], 330 nM; in [8], 399 nM; in assay [9] it was 195 nM. Also, the IC50 in [12] came to 527 nM; in assay [14] it was 257 nM; in [17], 342 nM; in assay [18], 301 nM.

Usually IC50 stands for the concentration that inhibits the measured activity by half.
